Values joined by “and” are separate entries in the source; they are usually repeats but may differ in a detail not shown here. Equal entries are not always repeated. “Also recorded” adds a separate entry of the source.
Key:
Format in all cases: in vivo, human
[1] = Ratio of total radioactivity in whole blood to plasma; conditions: Mean±SD, n=6
Procedure: The endpoint of blood analysis was a plasma radioactivity concentration less than 1/8 of the baseline plasma value. Venous blood samples were collected from the six subjects (01101–01106) at the following time points (in hours): −1 (pre-dosing), 0.5, 1, 2, 4, 8, 12, 24, and at 24-h intervals (post-dosing). Whole blood aliquots were collected for radioactivity measurement, and blood samples were centrifuged (1500 [± 10] g, 4 ℃, 10 min) for metabolite identification. All samples were stored at −10–−30 ℃ until analysis.
Blood, plasma, urine, and fecal samples were analyzed for TRA using the Tri-Carb model 3110 TR liquid scintillation counter (PerkinElmer, Waltham, MA, USA). Blood samples were divided into two parallel portions (0.5 g) and completely burned by OX-501 oxidizer (R.J. Harvey, Tappan, NY, USA). Finally, the samples were analyzed by liquid scintillation counting. Plasma (0.5 g) and urine (1 g) samples were directly analyzed by liquid scintillation counting. Fecal samples were first homogenized with isopropanol/water (50/50, v/v). The excretion of radioactivity in the urine and feces, referring to the cumulative recovery of total radioactive material in each time period, was defined as the sum of the percentage of TRA in the urine and feces relative to the administered dose. The TRA in each sample during a time period and the percentage of TRA related to the administered dose (% of dose) were calculated using the following formula: % of dosage = (TRA detected in the sample/radioactive dosage) × 100%.
The radioactivity in the whole blood and plasma is represented by the TRA ratio between the whole blood and plasma.

[2] = Safety analysis: adverse events and laboratory tests; conditions: for Urea: reference range 3.1–8.0; for Urea / TBIL / ALT / GGT / AST / Cr: listed as [14C]IBI351; for TBIL: reference range 5.1–19.0; for ALT: reference range 9.0–50.0; for GGT: reference range 10.0–60.0; for AST: reference range 15.0–40.0; for Cr: reference range 57.0–97.0; for Safety and tolerability: vital signs, physical indexes, electrocardiogram
Procedure: Safety was evaluated based on the adverse events that occurred during the trial. Normal/abnormal changes in physical examination, vital signs, laboratory tests, electrocardiogram, and other results were evaluated before and after the trial.

[3] = Radioactive metabolite profiling in pooled plasma, urine and feces
Procedure: Moreover, four plasma samples at 1 h, 4 h, 48 h, and 96 h were obtained by mixing them in equal volumes. Urine samples were pooled across individuals at an equal volume to obtain one pooled sample within each time period of 0–24 h, 24–48 h, and 48–96 h. Fecal samples (0–192 h) were pooled at the same weight percentages across collection intervals for each subject. Moreover, fecal samples were pooled across individuals at an equal weight to obtain one pooled sample within each time period of 0–72 h, 72–120 h, and 120–192 h. Plasma, urine, and fecal homogenates were extracted and concentrated using organic solvents, and then the redissolved solutions were used for metabolite profile analysis. The plasma, urine, and fecal extracts were separated on HPLC columns, and the HPLC flow fractions were collected in Deepwell LumaPlateTM-96 plates at 15 s/fraction using an automatic fraction collector. The radioactivity of each fraction was quantified using a microplate detector with ARC® Convert and Evaluation software (3.0.2.379) and transformed to obtain the radioactive metabolite spectra. The radioactive metabolite spectra of each sample were integrated to acquire the peak area of each radioactive metabolite peak, the proportion of each spectral peak to the total radioactive intensity of the sample, and the proportion of the radioactivity of the major metabolites to the TRA in the corresponding blood, urine, and fecal samples. Therefore, the ratio of metabolites' concentrations to the total drug exposure (AUC) in the plasma and the ratio of each metabolite's level to the dose administered in the urine and feces were calculated. Liquid chromatography with low-energy radionuclide detection and mass spectrometry was used to identify the main metabolites in human plasma, urine, and fecal samples and to identify the possible biotransformation pathways of IBI351 in these samples.

[4] = D3, individual subjects, rows in order 01101–01106
[5] = D8, individual subjects, rows in order 01101–01106
[6] = follow-up visit, individual subjects, rows in order 01101–01106
[7] = single oral 600 mg/150 μCi, listed as [^14C]IBI351

C=CC(=O)N1CCN2c3c(c(=O)n(-c4c(C)ccnc4C(C)C)c4nc(-c5c(O)cccc5F)c(Cl)cc34)N(C)C(=O)C2C1 (stereo not drawn) [IBI351]
Ratio of whole blood to total plasma radioactivity ([1]; 0.50 h post-dose): 0.655±0.0841 | Ratio of whole blood to total plasma radioactivity ([1]; 1.00 h post-dose): 0.716±0.0588 | Ratio of whole blood to total plasma radioactivity ([1]; 4.00 h post-dose): 0.606±0.0323 | Ratio of whole blood to total plasma radioactivity ([1]; 12.0 h post-dose): 0.571±0.0884 | Ratio of whole blood to total plasma radioactivity ([1]; 24.0 h post-dose): 0.626±0.0402 | Ratio of whole blood to total plasma radioactivity ([1]; 48.0 h post-dose): 0.670±0.0320 | Urea [2, 4]: 4.3 mmol/L and 4.9 mmol/L and 5.1 mmol/L and 4.5 mmol/L and 4.0 mmol/L and 5.5 mmol/L | TBIL [2, 4]: 6.4 µmol/L and 12.2 µmol/L and 7.7 µmol/L and 10.0 µmol/L and 11.5 µmol/L and 10.4 µmol/L | ALT ([2]; D3, individual subjects, 01101, 01102–01106): 11.4 U/L and 10.3 U/L and 11.0 U/L and 14.4 U/L and 29.0 U/L and 17.0 U/L | GGT [2, 4]: 9.9 U/L and 17.1 U/L and 19.1 U/L and 33.0 U/L and 14.4 U/L and 20.1 U/L | AST [2, 4]: 18.5 U/L and 11.5 U/L and 10.9 U/L and 16.4 U/L and 23.6 U/L and 19.0 U/L | Cr [2, 4]: 73.1 µmol/L and 69.5 µmol/L and 66.4 µmol/L and 69.2 µmol/L and 76.5 µmol/L and 78.7 µmol/L | Urea [2, 5]: 3.8 mmol/L and 5.4 mmol/L and 5.6 mmol/L and 4.2 mmol/L and 4.5 mmol/L and 5.1 mmol/L | TBIL [2, 5]: 8.1 µmol/L and 14.2 µmol/L and 4.5 µmol/L and 8.0 µmol/L and 15.1 µmol/L and 13.5 µmol/L | ALT [2, 5]: 18.3 U/L and 12.1 U/L and 10.5 U/L and 19.8 U/L and 30.9 U/L and 17.9 U/L | GGT [2, 5]: 12.1 U/L and 25.8 U/L and 16.8 U/L and 33.8 U/L and 17.0 U/L and 19.2 U/L | AST [2, 5]: 24.1 U/L and 14.2 U/L and 15.8 U/L and 15.2 U/L and 22.2 U/L and 17.7 U/L | Cr [2, 5]: 69.6 µmol/L and 73.7 µmol/L and 64.2 µmol/L and 72.0 µmol/L and 76.4 µmol/L and 84.3 µmol/L | Severity of TEAEs ([2]; all TEAEs, single oral 600 mg/150 μCi): grade 1 | Urea [2, 6]: 3.5 mmol/L and 3.8 mmol/L and 5.6 mmol/L and 4.7 mmol/L and 4.1 mmol/L and 6.1 mmol/L | TBIL [2, 6]: 8.1 µmol/L and 12.3 µmol/L and 4.5 µmol/L and 7.0 µmol/L and 8.8 µmol/L | ALT [2, 6]: 9.5 U/L and 20.5 U/L and 8.0 U/L and 19.4 U/L and 21.4 U/L and 14.7 U/L | GGT [2, 6]: 13.4 U/L and 25.8 U/L and 22.0 U/L and 32.9 U/L and 16.9 U/L and 15.9 U/L | AST [2, 6]: 15.7 U/L and 14.2 U/L and 16.9 U/L and 11.0 U/L and 19.4 U/L and 17.6 U/L | Cr [2, 6]: 72.8 µmol/L and 73.1 µmol/L and 64.2 µmol/L and 71.4 µmol/L and 66.8 µmol/L and 92.4 µmol/L | Subjects experiencing treatment-emergent adverse events (TEAEs) ([2]; four of six subjects, TEAEs unrelated to [14C]IBI351, single oral 600 mg/150 μCi): 66.7% | TEAE: diarrhea ([2]; share of six subjects, grade 1): 33.3% | TEAE: elevated blood triglycerides ([2]; share of six subjects, grade 1): 33.3% | TEAE: positive fecal occult blood ([2]; share of six subjects, grade 1): 16.7% | TEAEs leading to death ([2]; single oral 600 mg/150 μCi): no TEAEs leading to death | Serious adverse events [2, 7]: no serious adverse events; also recorded: no severe adverse events | TEAEs of CTCAE grade ≥ 3 [2, 7]: no TEAEs with Common Terminology Criteria for Adverse Events (CTCAE) grade ≥ 3; also recorded: no TEAEs of CTCAE grade ≥ 3 | Safety and tolerability ([2]; single oral 600 mg/150 μCi): generally safe and well tolerated | Safety and tolerability [2, 7]: good safety and tolerance | Feces (0–192 h) % of dose ([3]; pooled feces 0–192 h): 9.71 % of dose | Plasma (0–144 h) % of AUC (share of total plasma radioactivity exposure) ([3]; pooled plasma 0–144 h): 4.54 % of AUC | Plasma (0–144 h) Metabolite/parent drug (%) ([3]; pooled plasma 0–144 h, relative to the parent drug): 100.00% | Urine (0–96 h) % of dose ([3]; pooled urine 0–96 h): 1.16 % of dose | Feces+urine % of dose ([3]; sum of feces 0–192 h and urine 0–96 h): 10.87 % of dose
